Non-standard residues stand in square brackets, D forms with d. Residues, ends and D or L forms follow the SMILES beside them. d(αMeW) = C[C@@](N)(Cc1c[nH]c2ccccc12)C(=O)O; Phe(4-I) = N[C@@H](Cc1ccc(I)cc1)C(=O)O; Nle = CCCC[C@H](N)C(=O)O; dAbu = CC[C@@H](N)C(=O)O; Aib = CC(C)(N)C(=O)O

These results are taken from US20240287154A1, “MC3R AGONIST PEPTIDES” (The Regents of the University of Michigan, priority 2021, published 2024).

Chain of human MC4R (P32245 whole entry): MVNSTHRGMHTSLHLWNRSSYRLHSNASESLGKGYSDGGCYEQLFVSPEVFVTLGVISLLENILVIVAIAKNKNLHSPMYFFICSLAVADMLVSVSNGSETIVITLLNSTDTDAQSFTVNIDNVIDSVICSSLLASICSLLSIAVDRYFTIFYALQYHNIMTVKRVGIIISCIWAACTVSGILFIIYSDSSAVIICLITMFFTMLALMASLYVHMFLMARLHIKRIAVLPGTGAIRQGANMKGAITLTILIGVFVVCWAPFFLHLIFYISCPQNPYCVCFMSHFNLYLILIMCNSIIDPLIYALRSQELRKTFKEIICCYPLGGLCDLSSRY

In this assay the target is human MC4R (Homo sapiens, UniProt P32245). In words: Intracellular cAMP levels in live cells, MC3R selectivity relative to MC4R. It counts as cell-based. The following applies: cAMP assays in human MC3R and human MC4R stable cell lines. The procedure:
The stable cell lines were grown and maintained in selection media consisting of Dulbecco's modified Eagle media (DMEM) with 4.5 g/l D-glucose, and 4 mM L-glutamine (Thermo Fisher Scientific, Waltham, MA), supplemented with 10% fetal bovine serum, 100 units/ml penicillin, 100 μg/ml streptomycin, 2.5 μg/ml amphotericin B, 200 μg/ml hygromycin B (for positive selection of the GScAMP22f luciferase reporter), and Geneticin™ (G418) 700 μg/ml (for MC3R or MC4R selection). Actual serum concentration during the assay is estimated to be about 1%. Cell line identity is routinely verified by qPCR and MC3R- and MC4R-specific oligonucleotides.
The assay for the determination of the CAMP response in live cells was described previously. […] Ccells were seeded at a density of 20,000 cells per well using 384-well poly-D lysine-coated, clear bottom, and black-wall assay plates (Corning Inc. Corning, NJ). Cells were allowed to attach to the plates for 18 to 24 h after which growth media was removed and 20 ul of 4% D-luciferin (Promega) in CO2 independent, serum-free medium (Thermo Fisher Scientific) was added to each well. […] Intracellular cAMP levels were measured using an FDSS 7000EX Functional Drug Screening System (Hamamatsu Photonics, Hamamatsu, Japan) in the Center for Chemical Genomics at the Life Sciences Institute. This instrument allowed the in-line addition of test-peptides and receptor agonists while simultaneously acquiring the luminescence signal from live cells. […] A submaximal forskolin (20 μM) concentration was also included to serve as a normalization reference to account for cell number variations and differences in assay transducer efficiency between cell lines.
With this set up it was possible to evaluate the direct agonist effect of the test-peptides on the MC3R and MC4R cell lines during measurement window 1, while the antagonist profile in the presence of EC90 α-MSH was determined on measurement window 2. […] EC50 or IC50 potency values were determined by non-linear regression by fitting the data to a sigmoid four-parameter variable slope model using the GraphPad Prism version 8.4 software package (San Diego CA).
Background: Changes in cAMP serve as a functional read-out for many G protein-coupled receptors.
In the case of `CCCC[C@H](NC(C)=O)C(=O)N1CCC[C@@H]1C(=O)N[C@@H](Cc1c[nH]cn1)C(=O)N[C@@H](Cc1ccccc1)C(=O)N[C@@H](CCCNC(=N)N)C(=O)N[C@H](Cc1c[nH]c2ccccc12)C(=O)N[C@@H](CC(=O)O)C(=O)N[C@@H](CCCNC(=N)N)C(=O)N[C@@H](Cc1ccccc1)C(=O)NCC(=O)O` [CTX-1184, Nle-D-Pro-His-Phe-Arg-D-Trp-Asp-Arg-Phe-Gly] (Ac-[Nle][dP]HFR[dW]DRFG-OH), the “MC3R selectivity (relative to MC4R)” value is reported as 28.
In the case of `CCCC[C@H](NC(C)=O)C(=O)N[C@H](C)C(=O)N[C@@H](Cc1c[nH]cn1)C(=O)N[C@@H](Cc1ccccc1)C(=O)N[C@@H](CCCNC(=N)N)C(=O)N[C@](C)(Cc1c[nH]c2ccccc12)C(=O)N[C@@H](CC(=O)O)C(=O)N[C@@H](CCCNC(=N)N)C(=O)N[C@@H](Cc1ccccc1)C(=O)NCC(=O)O` [CTX-1510, Nle-D-Ala-His-Phe-Arg-aMe-D-Trp-Asp-Arg-Phe-Gly] (Ac-[Nle][dA]HFR[d(αMeW)]DRFG-OH) it was 23; in that of `CCCC[C@H](NC(C)=O)C(=O)N[C@H](C)C(=O)N[C@@H](Cc1c[nH]cn1)C(=O)N[C@@H](Cc1ccccc1)C(=O)N[C@@H](CCCNC(=N)N)C(=O)N[C@H](Cc1c[nH]c2ccccc12)C(=O)N[C@@H](CC(=O)O)C(=O)N[C@@H](C)C(=O)N[C@@H](Cc1ccccc1)C(=O)NCC(=O)O` [CTX-1534, Nle-D-Ala-His-Phe-Arg-D-Trp-Asp-Ala-Phe-Gly] (Ac-[Nle][dA]HFR[dW]DAFG-OH), 186.
Regarding `CCCC[C@H](NC(=O)[C@@H](NC(=O)[C@@H](N)Cc1ccc(O)cc1)C(C)C)C(=O)N[C@H](CC)C(=O)N[C@@H](Cc1c[nH]cn1)C(=O)N[C@@H](Cc1ccccc1)C(=O)N[C@@H](CCCNC(=N)N)C(=O)N[C@H](Cc1c[nH]c2ccccc12)C(=O)N[C@@H](CC(=O)O)C(=O)N[C@@H](CCCNC(=N)N)C(=O)N[C@@H](Cc1ccccc1)C(=O)NCC(=O)O` [CTX-1135, Tyr-Val-Nle-D-Abu-His-Phe-Arg-D-Trp-Asp-Arg-Phe-Gly] (H-YV[Nle][dAbu]HFR[dW]DRFG-OH), the “MC3R selectivity (relative to MC4R)” value worked out at 667.
In the case of `CCCC[C@H](NC(=O)[C@@H](NC(=O)[C@@H](N)Cc1ccc(O)cc1)C(C)C)C(=O)NCC(=O)N[C@@H](Cc1c[nH]cn1)C(=O)N[C@H](Cc1ccccc1)C(=O)N[C@@H](CCCNC(=N)N)C(=O)N[C@H](Cc1c[nH]c2ccccc12)C(=O)N[C@@H](CC(=O)O)C(N)=O` [CTX-1107, Tyr-Val-Nle-Gly-His-D-Phe-Arg-D-Trp-Asp] (H-YV[Nle]GH[dF]R[dW]D-NH2) it was 2.4; in that of `CCCC[C@H](NC(C)=O)C(=O)N[C@H](C)C(=O)N[C@@H](Cc1c[nH]cn1)C(=O)N[C@@H](Cc1ccccc1)C(=O)N[C@@H](CCCNC(=N)N)C(=O)N[C@H](Cc1c[nH]c2ccccc12)C(=O)N[C@@H](CC(=O)O)C(=O)N[C@@H](CCCNC(=N)N)C(=O)N[C@H](Cc1ccccc1)C(=O)NCC(=O)O` [CTX-1145, Nle-D-Ala-His-Phe-Arg-D-Trp-Asp-Arg-D-Phe-Gly] (Ac-[Nle][dA]HFR[dW]DR[dF]G-OH), 535.
In the case of `CCCC[C@H](NC(C)=O)C(=O)N[C@H](C)C(=O)N[C@@H](Cc1c[nH]cn1)C(=O)N[C@@H](Cc1ccccc1)C(=O)N[C@@H](CCCNC(=N)N)C(=O)N[C@H](Cc1c[nH]c2ccccc12)C(=O)N[C@@H](CC(=O)O)C(=O)N[C@@H](CCCNC(=N)N)C(=O)N[C@@H](C)C(=O)NCC(=O)O` [CTX-1537, Nle-D-Ala-His-Phe-Arg-D-Trp-Asp-Arg-Ala-Gly] (Ac-[Nle][dA]HFR[dW]DRAG-OH) it was 278.
For `CCCC[C@H](NC(C)=O)C(=O)N[C@H](C)C(=O)N[C@@H](Cc1c[nH]cn1)C(=O)N[C@@H](Cc1ccccc1)C(=O)N[C@@H](CCCNC(=N)N)C(=O)N[C@H](Cc1c[nH]c2ccccc12)C(=O)N[C@@H](CC(=O)O)C(=O)N[C@@H](CCCNC(=N)N)C(=O)N[C@@H](Cc1ccccc1)C(N)=O` [CTX-1158, Nle-D-Ala-His-Phe-Arg-D-Trp-Asp-Arg-Phe] (Ac-[Nle][dA]HFR[dW]DRF-NH2), the “MC3R selectivity (relative to MC4R)” value came to 535.
As for `CC(=O)N[C@@H](CO)C(=O)NCC(=O)N[C@@H](Cc1c[nH]cn1)C(=O)N[C@H](Cc1ccccc1)C(=O)N[C@@H](CCCNC(=N)N)C(=O)N[C@H](Cc1c[nH]c2ccccc12)C(=O)N[C@@H](CC(=O)O)C(N)=O` [CTX-1111, Ser-Gly-His-D-Phe-Arg-D-Trp-Asp] (Ac-SGH[dF]R[dW]D-NH2), the figure is 0.1; as for `CCCC[C@H](NC(C)=O)C(=O)N[C@H](C)C(=O)N[C@@H](Cc1c[nH]cn1)C(=O)N[C@@H](Cc1ccccc1)C(=O)N[C@@H](CCCNC(=N)N)C(=O)N[C@H](Cc1c[nH]c2ccccc12)C(=O)N[C@@H](CC(=O)O)C(=O)N[C@@H](CCCNC(=N)N)C(=O)N[C@H](Cc1ccccc1)C(=O)N[C@@H](CCCCN)C(=O)O` [CTX-1160, Nle-D-Ala-His-Phe-Arg-D-Trp-Asp-Arg-D-Phe-Lys] (Ac-[Nle][dA]HFR[dW]DR[dF]K-OH), 1,257; as for `CC(=O)N[C@H](C(=O)NCC(=O)N[C@@H](Cc1c[nH]cn1)C(=O)N[C@H](Cc1ccccc1)C(=O)N[C@@H](CCCNC(=N)N)C(=O)N[C@H](Cc1c[nH]c2ccccc12)C(=O)N[C@@H](CC(=O)O)C(N)=O)[C@@H](C)O` [CTX-1113, Thr-Gly-His-D-Phe-Arg-D-Trp-Asp] (Ac-TGH[dF]R[dW]D-NH2), 0.4.
In the case of `CCCC[C@H](NC(C)=O)C(=O)N[C@H](C)C(=O)N[C@@H](Cc1c[nH]cn1)C(=O)N[C@@H](Cc1ccccc1)C(=O)N[C@@H](CCCNC(=N)N)C(=O)N[C@H](Cc1c[nH]c2ccccc12)C(=O)N[C@@H](CC(=O)O)C(=O)N[C@@H](CCCNC(=N)N)C(=O)N1CCC[C@H]1C(=O)NCC(=O)O` [CTX-1536, Nle-D-Ala-His-Phe-Arg-D-Trp-Asp-Arg-Pro-Gly] (Ac-[Nle][dA]HFR[dW]DRPG-OH) it was 72; in that of `CCCC[C@H](NC(C)=O)C(=O)NC(C)(C)C(=O)N[C@@H](Cc1c[nH]cn1)C(=O)N[C@@H](Cc1ccccc1)C(=O)N[C@@H](CCCNC(=N)N)C(=O)N[C@H](Cc1c[nH]c2ccccc12)C(=O)N[C@@H](CC(=O)O)C(=O)N[C@@H](CCCNC(=N)N)C(=O)N[C@@H](Cc1ccccc1)C(=O)NCC(=O)O` [CTX-1143, Nle-Aib-His-Phe-Arg-D-Trp-Asp-Arg-Phe-Gly] (Ac-[Nle][Aib]HFR[dW]DRFG-OH), 3544; in that of `CCCC[C@H](NC(C)=O)C(=O)N[C@H](C)C(=O)N[C@@H](Cc1c[nH]cn1)C(=O)N[C@@H](Cc1ccccc1)C(=O)N[C@@H](CCCNC(=N)N)C(=O)N[C@H](Cc1c[nH]c2ccccc12)C(=O)NCC(N)=O` [CTX-1540, Nle-D-Ala-His-Phe-Arg-D-Trp-Gly] (Ac-[Nle][dA]HFR[dW]G-NH2), 11.
As for `CCCC[C@H](NC(=O)[C@@H](NC(=O)[C@@H](N)Cc1ccc(O)cc1)C(C)C)C(=O)N[C@H](C)C(=O)N[C@@H](Cc1c[nH]cn1)C(=O)N[C@@H](Cc1ccc(I)cc1)C(=O)N[C@@H](CCCNC(=N)N)C(=O)N[C@H](Cc1c[nH]c2ccccc12)C(=O)N[C@@H](CC(=O)O)C(=O)N[C@@H](CCCNC(=N)N)C(=O)N[C@@H](Cc1ccccc1)C(=O)NCC(=O)O` [CTX-2122, Tyr-Val-Nle-D-Ala-His-Phe(4-I)-Arg-D-Trp-Asp-Arg-Phe-Gly] (H-YV[Nle][dA]H[Phe(4-I)]R[dW]DRFG-OH), the figure is 324.
Regarding `CCCC[C@H](NC(C)=O)C(=O)N[C@H](C)C(=O)N[C@@H](Cc1c[nH]cn1)C(=O)N[C@@H](Cc1ccccc1)C(=O)N[C@@H](CCCNC(=N)N)C(=O)N[C@H](Cc1c[nH]c2ccccc12)C(=O)N[C@@H](CCCC)C(=O)N[C@@H](CCCNC(=N)N)C(=O)N[C@@H](Cc1ccccc1)C(=O)NCC(=O)O` [CTX-1532, Nle-D-Ala-His-Phe-Arg-D-Trp-Nle-Arg-Phe-Gly] (Ac-[Nle][dA]HFR[dW][Nle]RFG-OH), the “MC3R selectivity (relative to MC4R)” value was found to be 184.
In the case of `CCCC[C@H](NC(C)=O)C(=O)N[C@H](C)C(=O)N[C@@H](Cc1c[nH]cn1)C(=O)N[C@@H](Cc1ccccc1)C(=O)N[C@@H](CCCNC(=N)N)C(=O)N[C@H](Cc1c[nH]c2ccccc12)C(=O)N[C@@H](CC(=O)O)C(=O)N[C@@H](CCCCN)C(=O)N[C@@H](Cc1ccccc1)C(=O)NCC(=O)O` [CTX-1535, Nle-D-Ala-His-Phe-Arg-D-Trp-Asp-Lys-Phe-Gly] (Ac-[Nle][dA]HFR[dW]DKFG-OH) it was 1,589; in that of `CCCC[C@H](NC(C)=O)C(=O)N[C@H](C)C(=O)N[C@@H](Cc1c[nH]cn1)C(=O)N[C@@H](Cc1ccccc1)C(=O)N[C@@H](CCCCN)C(=O)N[C@H](Cc1c[nH]c2ccccc12)C(=O)N[C@@H](CC(=O)O)C(=O)N[C@@H](CCCNC(=N)N)C(=O)N[C@@H](Cc1ccccc1)C(=O)NCC(=O)O` [CTX-1523, Nle-D-Ala-His-Phe-Lys-D-Trp-Asp-Arg-Phe-Gly] (Ac-[Nle][dA]HFK[dW]DRFG-OH), 5,321.
